Experimental data reported in patent US20250042857A1, “SOS1 Inhibitor With Pyrido-Fused Six-Membered Ring Structure” (HAIHE BIOPHARMA CO., LTD., priority 2021, published 2025).

Legend:
p-ERK of PC-9 cells = test: p-ERK HTRF assay in PC-9 cells; type: cell-based; conditions: Homo sapiens, PC-9, 1 h, PC-9 lung cancer cells, 1 hour treatment, read-out: IC50, inhibitory activity on p-ERK of PC-9 cells
Experimental: IC50 Values of Compounds Determined by p-ERK HTRF Assay in PC-9 Cells
Experimental objective: an inhibitory effect of the test compounds on the phosphorylation of PC-9ERK of lung cancer cells at a cellular level was evaluated by detecting the phosphorylation of ERK.
• PRMI 1640 medium (Invitrogen-11875093) • 0.25% pancreatin (Invitrogen-25200056) • Phosphoric acid buffer salt solution (PBS, pH 7.4) (Invitrogen-10010023) • Double-antibody (PS) (Invitrogen-15140122) • Fetal bovine serum (FBS) (Gibco-10091148) • Trypan blue (Gibco-15250061) • 10-cm culture dish (Corning-430167) • 10-mL pipette (Costar-4488) • Pipettor (Sartorius-17009031) • 15-mL centrifuge tube (Corning-430052) • 50-mL centrifuge tube (Corning-430829) • Cryotube (Thermo-377267) • 1.5-mL EP tube (Axygen-MCT-150-C-S) • Cell incubator (Thermo-371) • Microscope (Olympus-CKX41) • Centrifuge (Flying Pigeon-TDL-80-2B) • Cell counter (Countstar-IC-1000) • Envision (Perkin Elmer) • Spark 10M (TECAN) • Phospho-ERK1/2 (Thr202/Tyr204) Experimental kit (Cisbio, Cat. No. 64AERPEG) • PC-9 cells: RPMI1640+10% FBS+1% PS
• 1) PBS, 0.25% pancreatin, and a cell culture medium were placed in a water-bath kettle at 37° C. for preheating; • 2) cells were observed under a microscope, a fusion degree was evaluated, and no bacterial and fungi pollution was confirmed; • 3) a culture solution was removed, the cells were washed with 5 mL of PBS and digested with 2 mL of the 0.25% trypsin, the digestion was terminated with 10 mL of the fresh cell culture medium, a culture dish was rinsed, and the cells were transferred to a 15-mL centrifuge tube; • 4) the collected cells were centrifuged at 1,000 rpm for 5 minutes; • 5) after the centrifugation, the supernatant was discarded, the cells were resuspended in 5 mL of the cell culture medium, 20 μL of the resuspended cells were aspirated, and the number and viability of viable cells were recorded; • 6) the cell culture medium was used and the cell density was adjusted (PC-9:10,000 cells/well, and 45 μL per well); • 7) in a 384-well plate, 45 μL of a cell suspension per well was transferred according to an experimental design figure; and • 8) the cells were incubated overnight at 37° C. and 5% CO2.
• 1) The compounds were diluted from the stock concentration to 10 mM with 100% DMSO (Trametinib was diluted to 1 mM), then 3-fold diluted into 10 points (5 μL of the diluted compounds with the concentration of 10 mM were transferred to 10 μL of the DMSO in an LDV plate), and centrifuged at 1,000 rpm/min for 1 minute; • 2) 5 μL of the diluted compounds of step 1) were transferred to an inter plate 1 containing 45 μL of the cell culture medium (the compounds were diluted from 1,000× to 100×); • 3) 5 μL of the diluted compounds of step 2) were transferred to an inter plate 2 containing 45 μL of the cell culture medium (the compounds were diluted from 100× to 10×); • 4) 5 μL of the compounds were pipetted from the inter plate 2 into a cell culture plate (the compounds were diluted from 10 folds to 1 fold), the final concentrations of the test compounds were 10,000 nM, 3333.33 nM, 1111.11 nM, 370.37 nM, 123.46 nM, 41.15 nM, 13.72 nM, 4.57 nM, 1.52 nM, and […], the solution was centrifuged at 1,000 rpm/min for 1 minute, and the final content of the DMSO was 0.1%; and • 5) the cells were treated in an incubator at 37° C. for 1 hour. […]

KRAS-G12C/SOS1 = KRAS-G12C/SOS1 (Homo sapiens (Human), UniProt Q07889); test: Detection of inhibitory effects of compounds on KRAS-G12C/SOS1 (KRASG12C/SOS binding kit, HTRF); conditions: Em665/620, read-out: IC50, inhibitory activity on interaction of KRAS-G12C/SOS1
Chain of KRAS-G12C/SOS1 (Q07889 whole entry, stated change not applied): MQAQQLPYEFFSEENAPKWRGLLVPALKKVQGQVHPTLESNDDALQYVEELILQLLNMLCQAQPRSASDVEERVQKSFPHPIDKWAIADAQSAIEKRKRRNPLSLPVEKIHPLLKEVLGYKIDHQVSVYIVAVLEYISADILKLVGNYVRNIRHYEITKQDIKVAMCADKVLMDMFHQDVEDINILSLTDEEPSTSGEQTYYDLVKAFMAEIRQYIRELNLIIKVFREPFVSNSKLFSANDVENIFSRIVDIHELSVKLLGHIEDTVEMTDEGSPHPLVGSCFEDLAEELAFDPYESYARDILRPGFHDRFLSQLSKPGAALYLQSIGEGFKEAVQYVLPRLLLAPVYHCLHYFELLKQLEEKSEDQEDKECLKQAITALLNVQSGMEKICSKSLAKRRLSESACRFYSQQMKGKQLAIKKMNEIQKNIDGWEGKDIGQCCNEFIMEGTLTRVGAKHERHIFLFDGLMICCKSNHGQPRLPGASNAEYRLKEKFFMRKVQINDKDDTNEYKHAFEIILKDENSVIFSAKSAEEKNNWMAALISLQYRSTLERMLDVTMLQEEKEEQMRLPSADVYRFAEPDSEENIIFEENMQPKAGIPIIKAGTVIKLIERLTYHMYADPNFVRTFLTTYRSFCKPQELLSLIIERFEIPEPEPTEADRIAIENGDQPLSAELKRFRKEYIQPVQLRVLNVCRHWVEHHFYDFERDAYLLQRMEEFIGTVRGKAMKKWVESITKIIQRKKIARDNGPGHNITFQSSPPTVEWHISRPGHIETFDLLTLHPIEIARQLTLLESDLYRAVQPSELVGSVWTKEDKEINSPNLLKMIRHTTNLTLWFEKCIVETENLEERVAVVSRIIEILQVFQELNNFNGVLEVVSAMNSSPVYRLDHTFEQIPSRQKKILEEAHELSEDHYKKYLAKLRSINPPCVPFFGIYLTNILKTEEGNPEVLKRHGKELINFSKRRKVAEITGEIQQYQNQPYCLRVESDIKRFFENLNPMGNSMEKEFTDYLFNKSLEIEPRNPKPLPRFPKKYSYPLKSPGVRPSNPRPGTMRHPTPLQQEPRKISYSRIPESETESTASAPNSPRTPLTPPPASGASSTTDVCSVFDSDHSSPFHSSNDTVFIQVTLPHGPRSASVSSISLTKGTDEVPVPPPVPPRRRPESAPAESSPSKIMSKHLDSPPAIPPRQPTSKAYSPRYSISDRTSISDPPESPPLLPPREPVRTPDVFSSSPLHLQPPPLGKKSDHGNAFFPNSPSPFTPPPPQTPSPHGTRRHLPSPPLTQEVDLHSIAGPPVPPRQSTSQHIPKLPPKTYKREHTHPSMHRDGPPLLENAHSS
Source text: Experimental objective: The inhibitory effects of the tested compounds on KRAS-G12C/SOS1 were detected. IC50 was used to characterize the inhibitory ability of the compounds on the KRAS-G12C/SOS1. The lower IC50 value indicated the stronger inhibitory ability. BI-3406 was used as a positive control compound.
Experimental reagents: KRASG12C/SOS binding kit (Cisbio, cat. 63ADK000CB16PEG); DMSO (Sigma, cat. D8418-1L); and 384-well white plate (PerkinElmer, cat. 6007290)
• 1. Preparation of compounds: the test compounds were dissolved in 100% DMSO to obtain 10 mM stock solutions and the stock solutions were stored in a refrigerator in the dark. • 2. Kinase reaction process:
Preparation of compounds: the test compounds had the concentration of 5,000 nM and diluted in a 384-well plate into a 100% DMSO solution at the 200-fold final concentration, and the compounds were diluted 3-fold with 10 concentrations. 50 nL of the compounds at the 200-fold final concentration were transferred to the plate of interest, the 384-well plate, using a dispenser Echo 550. 50 nL of 100% DMSO was added to each negative control well and positive control well.
A Tag1-SOS1 solution at the 4-fold final concentration was prepared using a diluent buffer.
2.5 μL of the Tag1-SOS1 solution at the 4-fold final concentration was added to the 384-well plate.
A Tag2-KRAS-G12C solution at the 4-fold final concentration was prepared using the diluent buffer.
2.5 μL of the Tag2-KRAS-G12C solution at the 4-fold final concentration was respectively added into compound wells and the positive control wells; and 2.5 μL of the diluent buffer was added to the negative control wells.
The 384-well plate was centrifuged at 1,000 rpm for 30 seconds, shaken and mixed uniformly, and incubated at room temperature for 15 minutes.
An Anti-Tag1-TB3+ solution at the 1-fold final concentration and an Anti-Tag2-XL665 solution at the 1-fold final concentration were prepared using a detection buffer, the two solutions were mixed uniformly to obtain a Mix solution, and 5 μL of the Mix solution was added into each well.
The 384-well plate was centrifuged at 1,000 rpm for 30 seconds, shaken and mixed uniformly, and incubated at 4° C. for 120 minutes.
Em665/620 was read using an Envision microplate reader.
Inhibition %=(Max signal−Compound signal)/(Max signal−Min signal)×100 Calculation formula • wherein the Min signal was the mean value of the negative control wells, and the Max signal was the mean value of the positive control wells.
A dose-response curve was fitted using the log value of the concentration as an X axis and the percentage of the inhibitory rate as a Y axis by using the log(inhibitor) vs. response-variable slope of an analytical software GraphPadPrism5, thereby obtaining the IC50 value of each compound on an enzyme activity.

## COC[C@@H]1CN(C(C)=O)CCN1c1cc2c(N[C@H](C)c3cccc(C(F)F)c3F)ccnc2cn1 [Compound B-48]
p-ERK of PC-9 cells
  IC50: ≤ 300 nM
KRAS-G12C/SOS1
  IC50: ≤ 100 nM

## C[C@@H](Nc1ccnc2cnc(C3(O)CCN(C(=O)C4CCOCC4)CC3)cc12)c1cccc(C(F)F)c1F [Compound B-135]
p-ERK of PC-9 cells
  IC50: 300 to 1000 nM
KRAS-G12C/SOS1
  IC50: ≤ 100 nM

## CC(=O)N1CCC(O)(c2cc3c(N[C@H](C)c4cccc(C(F)F)c4F)ccnc3c(C)n2)CC1 [Compound B-68]
p-ERK of PC-9 cells
  IC50: > 1000 nM
KRAS-G12C/SOS1
  IC50: ≤ 100 nM

## C[C@@H](Nc1ccnc2cnc(N3CCN(C)C(=O)C3)cc12)c1cccc(C(F)F)c1F [Compound B-41]
p-ERK of PC-9 cells
  IC50: ≤ 300 nM
KRAS-G12C/SOS1
  IC50: ≤ 100 nM

## C[C@@H](Nc1ccnc2cnc(C3(O)CCN(C(=O)[C@H]4C[C@@H](O)CN4)CC3)cc12)c1cccc(C(F)F)c1F [Compound B-145]
p-ERK of PC-9 cells
  IC50: > 1000 nM
KRAS-G12C/SOS1
  IC50: ≤ 100 nM

## C[C@@H](Nc1ccnc2cnc(N3CCNCC3)cc12)c1cccc(C(F)F)c1F [Compound B-22]
p-ERK of PC-9 cells
  IC50: 300 to 1000 nM
KRAS-G12C/SOS1
  IC50: ≤ 100 nM

## CC(=O)N1C2CCC1CN(c1cc3c(N[C@H](C)c4cccc(C#N)c4F)ccnc3cn1)C2 [Compound B-165]
p-ERK of PC-9 cells
  IC50: 300 to 1000 nM
KRAS-G12C/SOS1
  IC50: ≤ 100 nM

## C[C@@H](Nc1c(F)cnc2cnc(C3(O)CCN(C(=O)CO)CC3)cc12)c1cccc(C(F)F)c1F [Compound B-123]
p-ERK of PC-9 cells
  IC50: ≤ 300 nM
KRAS-G12C/SOS1
  IC50: ≤ 100 nM

## C[C@@H](Nc1ccnc2cnc(C3(O)CCN(C(=O)Cc4cccnc4)CC3)cc12)c1cccc(C(F)F)c1F [Compound B-138]
p-ERK of PC-9 cells
  IC50: ≤ 300 nM
KRAS-G12C/SOS1
  IC50: ≤ 100 nM

## C[C@@H](Nc1ccnc2cnc(N3CCC(O)CC3=O)cc12)c1cccc(C(F)F)c1F (stereo partly drawn) [Compound B-54]
p-ERK of PC-9 cells
  IC50: 300 to 1000 nM
KRAS-G12C/SOS1
  IC50: ≤ 100 nM

## Cc1nc(C2(O)CCN(C(=O)CO)CC2)cc2c(N[C@H](C)c3cccc(C(F)F)c3F)ccnc12 [Compound B-175]
p-ERK of PC-9 cells
  IC50: ≤ 300 nM
KRAS-G12C/SOS1
  IC50: ≤ 100 nM

## C[C@@H](Nc1ccnc2c(-c3cnn(C)c3)nc(C3(O)CCN(C(=O)CO)CC3)cc12)c1cccc(C(F)F)c1F [Compound B-171]
p-ERK of PC-9 cells
  IC50: ≤ 300 nM
KRAS-G12C/SOS1
  IC50: ≤ 100 nM

## C[C@@H](Nc1ccnc2cnc(-c3ccn(C)c(=O)c3)cc12)c1cccc(C(F)F)c1F [Compound B-108]
p-ERK of PC-9 cells
  IC50: ≤ 300 nM
KRAS-G12C/SOS1
  IC50: ≤ 100 nM

## C[C@@H](Nc1ccnc2cnc(C3(O)CCC(O)CC3)cc12)c1cccc(C(C)(F)F)c1F (single isomer, unassigned) [Compound B-87-P1]
p-ERK of PC-9 cells
  IC50: > 1000 nM
KRAS-G12C/SOS1
  IC50: 100 to 500 nM

## C[C@@H](Nc1ccnc2cnc(C3(O)CCN(C(=O)[C@H]4CCOC4)CC3)cc12)c1cccc(C(F)F)c1F [Compound B-134]
p-ERK of PC-9 cells
  IC50: ≤ 300 nM
KRAS-G12C/SOS1
  IC50: ≤ 100 nM

## CNCC(=O)N1CCC(O)(c2cc3c(N[C@H](C)c4cccc(C(F)F)c4F)ccnc3cn2)CC1 [Compound B-122]
p-ERK of PC-9 cells
  IC50: > 1000 nM
KRAS-G12C/SOS1
  IC50: ≤ 100 nM

## C[C@@H](Nc1ccnc2cnc(C3(O)CCN(C(=O)N4CC[C@H](O)C4)CC3)cc12)c1cccc(C(F)F)c1F [Compound B-161]
p-ERK of PC-9 cells
  IC50: 300 to 1000 nM
KRAS-G12C/SOS1
  IC50: ≤ 100 nM

## CC(=O)N1CC=C(c2cc3c(N[C@H](C)c4cccc(C(F)F)c4F)ccnc3cn2)C1 [Compound B-109]
p-ERK of PC-9 cells
  IC50: ≤ 300 nM
KRAS-G12C/SOS1
  IC50: ≤ 100 nM
